Data published in PubChem BioAssay AID743283 (The Scripps Research Institute Molecular Screening Center, 2014).
Active and inactive are the calls of the source.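 The calls were made as follows: active = IC50 at or below 10 µM; inactive = IC50 above 10 µM.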

These compounds were tested on HEK293 Gal4-VP16 luciferase reporter counterscreen (assay: VP16-driven transactivation reporter suppression potency – cell-based, luminescence, HEK293, powder samples, round 000, counter-screen for COUP-TFII inhibitor project, late-stage follow-up (AID 743283)).

Compound | IC50
CCC1CCCCN1C(=O)c1cc(COc2ccc3ncccc3c2)on1 (centres undefined) | > 85.4 µM (inactive)
COc1ccc(CCNc2ncnc3sc(C)cc23)cc1OC | 30.2 µM (inactive)
Cc1cc(C)c(S(=O)(=O)NCc2ccncc2)c(C)c1 | > 85.4 µM (inactive)
Cn1nccc1C(=O)NC1CCCc2c1cnn2-c1ccc(C(C)(C)C)cc1 (centres undefined) | > 85.4 µM (inactive)
CN(CC1CCCO1)S(=O)(=O)c1ccc(C(=O)Nc2nc3cc4c(cc3s2)OCO4)cc1 (centres undefined) | > 42.7 µM (inactive)
CCOc1cc(S(=O)(=O)NCc2ccncc2)ccc1Cl | > 85.4 µM (inactive)
Cc1nn(C)c(C)c1CN(C)S(=O)(=O)c1ccc2ccccc2c1 | > 85.4 µM (inactive)
Cc1ccc(OCCN2CCN(c3ncnc4sc(C)c(C)c34)CC2)cc1 | > 85.4 µM (inactive)
COc1ccc(CCNc2ncnc3sccc23)cc1OC | > 85.4 µM (inactive)
Clc1ccc(OCCN2CCN(c3ncnc4sccc34)CC2)cc1 | > 85.4 µM (inactive)
COc1ccc(CN(C)c2ccc(S(=O)(=O)N3CCN(C)CC3)cc2[N+](=O)[O-])cc1OC | > 85.4 µM (inactive)
CC1Cc2cc(-c3csc(NC(=O)Cc4cccs4)n3)ccc2N1S(C)(=O)=O (centres undefined) | 11.5 µM (inactive)
Cc1cc(-n2nc3ccccc3n2)c2oc(SCC(=O)NC(C)(C)C)nc2c1 | 79.3 µM (inactive)
CCOC(=O)N1CCN(C(=O)CSCC(=O)Nc2nc(-c3ccc(-c4ccccc4)cc3)cs2)CC1 | 33.9 µM (inactive)
COc1ccc(OC)c(CCNC(=O)Cn2nc(C)c3c(C)n(-c4ccc(C)cc4)nc3c2=O)c1 | > 28.5 µM (inactive)
O=C(Nc1ccncc1)c1ccc(Cl)c(S(=O)(=O)N2CCc3ccccc32)c1 | 37 µM (inactive)
COc1ccc(NS(=O)(=O)c2cccc(NC(=O)c3ccc(Cl)nc3)c2)cc1 | > 28.5 µM (inactive)
Cc1cc(-n2c(C)cc(C(=O)CSc3ncnc4ccccc34)c2C)no1 | > 85.4 µM (inactive)
CC(Nc1ncnc2ccccc12)c1ccccc1 (centres undefined) | > 85.4 µM (inactive)
Cc1sc2ncnc(NCCc3ccc(S(N)(=O)=O)cc3)c2c1C | > 85.4 µM (inactive)
Cc1ccc(S(=O)(=O)CC2CSc3nc4ccccc4n32)cc1 (centres undefined) | > 85.4 µM (inactive)
O=S(=O)(NCC1CCCO1)c1ccc(-c2ccc(S(=O)(=O)NCC3CCCO3)cc2)cc1 (centres undefined) | > 85.4 µM (inactive)
Cc1oc(-c2ccc(Cl)cc2)nc1CS(=O)CC(=O)NCCCN1CCN(Cc2ccccc2)CC1 (centres undefined) | > 28.5 µM (inactive)
Cc1sc2ncnc(NCC3COc4ccccc4O3)c2c1C (centres undefined) | > 85.4 µM (inactive)
COc1ccc(NS(=O)(=O)c2ccc(-c3coc(C)n3)cc2)cc1OC | > 85.4 µM (inactive)
CC(=O)Nc1ccccc1OCC(=O)c1cc(C)n(Cc2cccs2)c1C | 8.67 µM
CCN(CC)S(=O)(=O)c1cccc(NC(=O)CNc2cccc(S(=O)(=O)N3CCCC3)c2)c1 | > 85.4 µM (inactive)
CCOC(=O)C1CCCN(S(=O)(=O)c2ccc(S(=O)(=O)N(CC)CC)cc2)C1 (centres undefined) | > 85.4 µM (inactive)
COc1ccc(C2=Nn3c([n+](C)c4ccccc43)SC2)cc1 | > 85.4 µM (inactive)
